Measurements as given in PubChem BioAssay AID1963420 (Molecular Pharmacology Branch, DTP, NCI, 2024).

Test system: 494315-158-R-J1-PDC complex spheroid growth, percent test/control
Test: Anticancer human tumor 494315-158-R-J1-PDC patient-derived soft tissue sarcoma cell line growth inhibition [Asc]
Details: for IC50: curve of first compound; for viability, T/C: stronger effect = lower value
Summary of the method: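 Concentration series start at each agent's clinical Cmax, or at 10 microM when none is established, and drop in half-log steps; agents are applied alone or together to complex spheroids built with HUVEC and hMSC.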

[1] = second compound 0.03 µM, first compound 0.00316 µM
[2] = second compound 0.03 µM, first compound 0.01 µM
[3] = second compound 0.03 µM, first compound 0.0316 µM
[4] = second compound 0.03 µM, first compound 0.1 µM
[5] = second compound 0.0949 µM, first compound 0.00316 µM
[6] = second compound 0.0949 µM, first compound 0.01 µM
[7] = second compound 0.0949 µM, first compound 0.0316 µM
[8] = second compound 0.0949 µM, first compound 0.1 µM
[9] = second compound 0.3 µM, first compound 0.00316 µM
[10] = second compound 0.3 µM, first compound 0.01 µM
[11] = second compound 0.3 µM, first compound 0.0316 µM
[12] = second compound 0.3 µM, first compound 0.1 µM
[13] = second compound 0.949 µM, first compound 0.00316 µM
[14] = second compound 0.949 µM, first compound 0.01 µM
[15] = second compound 0.949 µM, first compound 0.0316 µM
[16] = second compound 0.949 µM, first compound 0.1 µM
[17] = second compound 3 µM, first compound 0.00316 µM
[18] = second compound 3 µM, first compound 0.01 µM
[19] = second compound 3 µM, first compound 0.0316 µM
[20] = second compound 3 µM, first compound 0.1 µM
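Also: compound exposure lasted seven days after spheroids formed for three days.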

**Q.** Which IC50 (second compound 0.03 µM) does the source give for `COc1c(OCCCN2CCOCC2)ccc2c3n(c(=NC(=O)c4cnc(N)nc4)nc12)CCN3` + CCN1C(C(=O)NC23CCC(C(=O)O)(CC2)CC3)C(c2cccc(Cl)c2F)C2(C(=O)Nc3cc(Cl)ccc32)C12CCCCC2 here?
**A.** 45.8 nM

**Q.** What about the IC50 (second compound 0.0949 µM) of the same compound?
**A.** 39 nM

**Q.** What about the IC50 (second compound 0.3 µM) of the same compound?
**A.** 43.6 nM

**Q.** And the IC50 (second compound 0.949 µM)?
**A.** 35.6 nM

**Q.** What about the IC50 (second compound 3 µM) of the same compound?
**A.** 46.2 nM

**Q.** What about the viability, T/C [1] of the same compound?
**A.** 84%

**Q.** And the viability, T/C [2]?
**A.** 80.5%

**Q.** And the viability, T/C [3]?
**A.** 58.5%

**Q.** And the viability, T/C [4]?
**A.** 30.8%

**Q.** What about the viability, T/C (second compound 0.03 µM, first compound 0.316 µM) of the same compound?
**A.** 20.5%

**Q.** What about the viability, T/C (second compound 0.03 µM, first compound 1 µM) of the same compound?
**A.** 15.4%

**Q.** And the viability, T/C [5]?
**A.** 78.7%

**Q.** What about the viability, T/C [6] of the same compound?
**A.** 73.7%

**Q.** And the viability, T/C [7]?
**A.** 54%

**Q.** What about the viability, T/C [8] of the same compound?
**A.** 30.4%

**Q.** What about the viability, T/C (second compound 0.0949 µM, first compound 0.316 µM) of the same compound?
**A.** 22%

**Q.** What about the viability, T/C (second compound 0.0949 µM, first compound 1 µM) of the same compound?
**A.** 15.4%

**Q.** And the viability, T/C [9]?
**A.** 91.2%

**Q.** What about the viability, T/C [10] of the same compound?
**A.** 90.4%

**Q.** What about the viability, T/C [11] of the same compound?
**A.** 49.9%

**Q.** And the viability, T/C [12]?
**A.** 38%

**Q.** And the viability, T/C (second compound 0.3 µM, first compound 0.316 µM)?
**A.** 22.3%

**Q.** And the viability, T/C (second compound 0.3 µM, first compound 1 µM)?
**A.** 16.7%

**Q.** What about the viability, T/C [13] of the same compound?
**A.** 93.3%

**Q.** What about the viability, T/C [14] of the same compound?
**A.** 81.6%

**Q.** What about the viability, T/C [15] of the same compound?
**A.** 50.6%

**Q.** What about the viability, T/C [16] of the same compound?
**A.** 30.7%

**Q.** What about the viability, T/C (second compound 0.949 µM, first compound 0.316 µM) of the same compound?
**A.** 19.2%

**Q.** And the viability, T/C (second compound 0.949 µM, first compound 1 µM)?
**A.** 16.4%

**Q.** What about the viability, T/C [17] of the same compound?
**A.** 112%

**Q.** And the viability, T/C [18]?
**A.** 86.5%

**Q.** And the viability, T/C [19]?
**A.** 59.6%

**Q.** And the viability, T/C [20]?
**A.** 32.1%

**Q.** And the viability, T/C (second compound 3 µM, first compound 0.316 µM)?
**A.** 22.6%

**Q.** What about the viability, T/C (second compound 3 µM, first compound 1 µM) of the same compound?
**A.** 15.2%

**Q.** What does the source list for `NC(=O)C(=Cn1cnc(-c2cc(C(F)(F)F)cc(C(F)(F)F)c2)n1)c1cncnc1` + CCN1C(C(=O)NC23CCC(C(=O)O)(CC2)CC3)C(c2cccc(Cl)c2F)C2(C(=O)Nc3cc(Cl)ccc32)C12CCCCC2?
**A.** IC50 (second compound 0.03 µM): 72.6 nM; IC50 (second compound 0.0949 µM): 52.4 nM; IC50 (second compound 0.3 µM): 68.7 nM; IC50 (second compound 0.949 µM): 74.9 nM; IC50 (second compound 3 µM): 79.1 nM; viability, T/C (second compound 0.03 µM, first compound 0.000949 µM): 97%; viability, T/C (second compound 0.03 µM, first compound 0.003 µM): 107%; viability, T/C (second compound 0.03 µM, first compound 0.00949 µM): 84.9%; viability, T/C (second compound 0.03 µM, first compound 0.03 µM): 78.3%; viability, T/C (second compound 0.03 µM, first compound 0.0949 µM): 41%; viability, T/C (second compound 0.03 µM, first compound 0.3 µM): 17.4%; viability, T/C (second compound 0.0949 µM, first compound 0.000949 µM): 96.6%; viability, T/C (second compound 0.0949 µM, first compound 0.003 µM): 96.4%; viability, T/C (second compound 0.0949 µM, first compound 0.00949 µM): 81.6%; viability, T/C (second compound 0.0949 µM, first compound 0.03 µM): 64.4%; viability, T/C (second compound 0.0949 µM, first compound 0.0949 µM): 35.5%; viability, T/C (second compound 0.0949 µM, first compound 0.3 µM): 16.8%; viability, T/C (second compound 0.3 µM, first compound 0.000949 µM): 96.6%; viability, T/C (second compound 0.3 µM, first compound 0.003 µM): 88%; viability, T/C (second compound 0.3 µM, first compound 0.00949 µM): 97.6%; viability, T/C (second compound 0.3 µM, first compound 0.03 µM): 74.8%; viability, T/C (second compound 0.3 µM, first compound 0.0949 µM): 40.4%; viability, T/C (second compound 0.3 µM, first compound 0.3 µM): 17.5%; viability, T/C (second compound 0.949 µM, first compound 0.000949 µM): 98.2%; viability, T/C (second compound 0.949 µM, first compound 0.003 µM): 89.3%; viability, T/C (second compound 0.949 µM, first compound 0.00949 µM): 80.6%; viability, T/C (second compound 0.949 µM, first compound 0.03 µM): 70.8%; viability, T/C (second compound 0.949 µM, first compound 0.0949 µM): 43.4%; viability, T/C (second compound 0.949 µM, first compound 0.3 µM): 19.1%; viability, T/C (second compound 3 µM, first compound 0.000949 µM): 102%; viability, T/C (second compound 3 µM, first compound 0.003 µM): 103%; viability, T/C (second compound 3 µM, first compound 0.00949 µM): 95.6%; viability, T/C (second compound 3 µM, first compound 0.03 µM): 81%; viability, T/C (second compound 3 µM, first compound 0.0949 µM): 44%; viability, T/C (second compound 3 µM, first compound 0.3 µM): 13.6%

**Q.** For `NC1CCC(NC2CC2c2ccccc2)CC1` (stereo not given) + CCN1C(C(=O)NC23CCC(C(=O)O)(CC2)CC3)C(c2cccc(Cl)c2F)C2(C(=O)Nc3cc(Cl)ccc32)C12CCCCC2, which IC50 (second compound 0.03 µM) is on record?
**A.** > 100 nM

**Q.** What about the IC50 (second compound 0.0949 µM) of the same compound?
**A.** > 100 nM

**Q.** What about the IC50 (second compound 0.3 µM) of the same compound?
**A.** > 100 nM

**Q.** What about the IC50 (second compound 0.949 µM) of the same compound?
**A.** > 100 nM

**Q.** What about the IC50 (second compound 3 µM) of the same compound?
**A.** > 100 nM

**Q.** And the viability, T/C (second compound 0.03 µM, first compound 0.000316 µM)?
**A.** 95.8%

**Q.** What about the viability, T/C (second compound 0.03 µM, first compound 0.001 µM) of the same compound?
**A.** 95.3%

**Q.** And the viability, T/C [1]?
**A.** 89.8%

**Q.** What about the viability, T/C [2] of the same compound?
**A.** 85.2%

**Q.** And the viability, T/C [3]?
**A.** 112%

**Q.** What about the viability, T/C [4] of the same compound?
**A.** 97.9%

**Q.** What about the viability, T/C (second compound 0.0949 µM, first compound 0.000316 µM) of the same compound?
**A.** 99.7%

**Q.** And the viability, T/C (second compound 0.0949 µM, first compound 0.001 µM)?
**A.** 93.4%

**Q.** What about the viability, T/C [5] of the same compound?
**A.** 99%

**Q.** What about the viability, T/C [6] of the same compound?
**A.** 104%

**Q.** And the viability, T/C [7]?
**A.** 92.5%

**Q.** What about the viability, T/C [8] of the same compound?
**A.** 95%

**Q.** And the viability, T/C (second compound 0.3 µM, first compound 0.000316 µM)?
**A.** 96.6%

**Q.** What about the viability, T/C (second compound 0.3 µM, first compound 0.001 µM) of the same compound?
**A.** 91.3%

**Q.** And the viability, T/C [9]?
**A.** 94.7%

**Q.** What about the viability, T/C [10] of the same compound?
**A.** 88.7%

**Q.** What about the viability, T/C [11] of the same compound?
**A.** 96.5%

**Q.** And the viability, T/C [12]?
**A.** 82.2%

**Q.** And the viability, T/C (second compound 0.949 µM, first compound 0.000316 µM)?
**A.** 91%

**Q.** And the viability, T/C (second compound 0.949 µM, first compound 0.001 µM)?
**A.** 91.5%

**Q.** And the viability, T/C [13]?
**A.** 85.7%

**Q.** What about the viability, T/C [14] of the same compound?
**A.** 87.5%

**Q.** What about the viability, T/C [15] of the same compound?
**A.** 90.9%

**Q.** What about the viability, T/C [16] of the same compound?
**A.** 92.1%

**Q.** What about the viability, T/C (second compound 3 µM, first compound 0.000316 µM) of the same compound?
**A.** 98.3%

**Q.** What about the viability, T/C (second compound 3 µM, first compound 0.001 µM) of the same compound?
**A.** 98%

**Q.** What about the viability, T/C [17] of the same compound?
**A.** 93.7%

**Q.** What about the viability, T/C [18] of the same compound?
**A.** 91%

**Q.** And the viability, T/C [19]?
**A.** 83.6%

**Q.** What about the viability, T/C [20] of the same compound?
**A.** 96.6%
